In patent publication US7652046B2, “Substituted thienopyrrole carboxylic acid amides, pyrrolothiazole carboxylic acid amides, and related analogs as inhibitors of casein kinase I” (Aventis Pharmaceuticals Inc., priority 2004, dated 2010):

What was measured:
[1] = system: Mper1-luc Rat-1 fibroblasts (P2C4); assay: Cellular Circadian Assay (Mper1-luc reporter period lengthening); format: cell-based; conditions: effective concentration that induces a 1 hour lengthening of circadian period
From the text: The assay consists of Rat-1 fibroblasts stably expressing a Mper1-luc construct, thus enabling the determination of the rhythmic activation of the Mper1 promoter in living cells by repeatedly estimating luciferase activity by monitoring light-output over several days. The repeated measure format of the assay permits accurate and reproducible assessment of the concentration-dependent effects of CKIε inhibitors on circadian rhythm and provides the nexus for relating CKIε inhibition to circadian period alteration.
Cellular Circadian Assay Experimental Procedures
Stable transfection: Co-transfect Rat-1 fibroblast cultures at 30-50% confluence with vectors containing the Zeocin resistance selectable marker for stable transfection and an mPer-1 promoter-driven luciferase reporter gene. After 24-48 hours, split the cultures onto 96 well plates and maintain in growth media supplemented with 50-100 μg/mL Zeocin (Invitrogen #45-0430) for 10-14 days. Assess Zeocin-resistant stable transfectants for reporter expression by supplementing growth media with 100 μM luciferin (Promega #E1603) and assaying luciferase activity on a TopCount scintillation counter (Packard Model #C384V00). […] Select Mper1-luc Rat-1 fibroblasts clone P2C4 for compound testing. […] After synchronization, rinse cultures with 100 μL EMEM (Cellgro #10-010-CV) for 10 minutes at room temperature. […] Add compounds to be tested for circadian effects to CO2-independent media in 0.3% DMSO (final concentration). […] Estimate in vivo luciferase activity by measuring relative light output on a TopCount scintillation counter (Packard Model #C384V00). Transfer plates from incubator to reader using an ORCA robotic arm (Beckman Instruments) and SAMI-NT automated scheduling software (Version 3.3; SAGIAN/Beckman Instruments). Data Analysis: Use Microsoft Excel and XLfit (Version 2.0.9; IDBS) to import, manipulate and graph data. Perform period analysis either by determining the interval between relative light output minima over several days or by Fourier Transform. […] Analyze the data by fitting a hyperbolic curve to the data expressed as period change (y-axis) versus the concentration of test compound (x-axis) in XLfit and interpolate the EC[…]t+1h from this curve.

Casein Kinase Iε = biological target: T1, Casein Kinase Iε (Homo sapiens, UniProt P49674); assay: Casein Kinase Epsilon 33P-ATP Filter Plate Assay; format: biochemical
T1 construct: made in house
T1 sequence (P49674 whole entry): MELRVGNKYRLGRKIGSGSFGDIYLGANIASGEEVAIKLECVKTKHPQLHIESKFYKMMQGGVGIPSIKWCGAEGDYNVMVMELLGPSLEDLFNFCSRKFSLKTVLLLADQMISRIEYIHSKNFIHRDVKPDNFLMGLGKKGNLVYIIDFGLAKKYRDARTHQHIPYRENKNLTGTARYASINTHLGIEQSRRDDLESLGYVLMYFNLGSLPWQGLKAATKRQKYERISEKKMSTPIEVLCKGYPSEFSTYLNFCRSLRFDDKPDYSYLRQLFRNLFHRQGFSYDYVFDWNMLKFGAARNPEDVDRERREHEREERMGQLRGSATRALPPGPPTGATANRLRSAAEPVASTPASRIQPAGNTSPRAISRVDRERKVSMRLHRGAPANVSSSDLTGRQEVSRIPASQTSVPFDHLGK
From the text: Casein Kinase Epsilon ^33P-ATP Filter Plate Assay for Screening CKIε Inhibitors
Purpose: This assay measures the ability of compounds to inhibit the phosphorylation of the substrate casein by the enzyme casein kinase 1ε using an in vitro ^33P-ATP filtration assay. […] Materials:
Equipment: • Beckman Biomek 2000 Liquid Handling Robot • Beckman Multimek 96 Automated 96 Channel Pipettor • Millipore Vacuum Manifold Basic Kit # MAVM0960R • Titertek Multidrop Liquid Dispenser • Packard TopCount NXT Liquid Scintillation Counter
Enzyme: • Casein Kinase 1ε final concentration 0.58 mg/ml obtained from fermentation and purification processes as are well known to one skilled in the art. The above are stored as 100 μL aliquots at minus 80° C.
Compounds: • Supply compounds for testing as frozen 10 mM compound stock dissolved in 100% DMSO. Assay Conditions:
Final total assay volume per well is equal to 50 μL that one prepares as follows: • 5 μL of diluted compound stock (10, 1, 0.1, 0.01 or 0.001 μM), • 5 μL of dephosphorylated casein final concentration 0.2 μg/μL, • 20 μL of CK1ε final concentration 3 ng/μL, and • 20 μL of γ-^33P-ATP final concentration 0.02 μCi/μL mixed with cold ATP (10 μM final). Methodology: • 1. Prepare 500 mL of fresh assay buffer: 50 mM Tris pH 7.5, 10 mM MgCl2, 2 mM DTT and 1 mM EGTA • 2. Obtain compounds to be evaluated as 10 μL of 10 mM stock dissolved in 100% DMSO. Use a Biomek 2000 liquid handling robot, make serial dilutions to yield 10, 1, 0.1, 0.01 and 0.001 μM final compound dilutions added as 5 μL additions to Falcon U bottom plates. […] A routine screening assay will consist of 32 compounds, which equals 4 assay plates. • 3. Assay plate maps are set up according to the following pattern CK1ePlateMap.xls
• 4. Add 5 μL of compound as indicated, then add 5 μL of dephosphorylated casein (dissolved in distilled H20)(0.2 μg/μL) and 20 μL CK1ε (3 ng/μL) to the appropriate wells. • 5. Finally add 20 μL γ-^33P-ATP (0.02 μCi/μL)/10 μM cold ATP (equals approximately 2×10^6 CPM per well). • 6. Vortes the Falcon U-Bottom assay plate containing the above 50 μL reaction volume and then incubate at room temperature for 2 hours. • 7. At the end of 2 hours, stop the reaction by the addition of 65 μL of ice cold 2 mM cold ATP (made up in assay buffer) to the assay plates using a Beckman Multimek. • 8. At the same time add 25 μL 100% ice cold TCA made up in distilled H20 to a matching number of Millipore MAPH filter plates. • 9. Using a handheld 8-channel pipettor, transfer 100 μL of the reaction mixture from the Falcon U-Bottom Plate to the Millipore MAPH filter plates presoaked with TCA. • 10. Mix the Millipore MAPH filter plates gently and allow to sit at room temperature for at least 30 minutes to precipitate the proteins. • 11. After 30 minutes, place the filter plates on a Millipore vacuum manifold and filter at no more than 8 mm Hg as the MAPH filters tend to “air lock” at higher vacuum settings. • 12. Wash the filter plates sequentially and filter with 2×150 μL 20% TCA, 2×150 μL 10% TCA and 2×150 μL 5% TCA (total of 6 washes per plate/900 μL per well). • 13. Allow the plates to dry overnight at room temperature. The next day add 40 μL Packard Microscint-20 Scintillation Fluid per well using a Titertek Multidrop dispenser; seal the plates and count for 2 minutes/well in a Packard Topcount NXT Scintillation Counter (to provide CPM values/well). Calculation: • 1. Import Counts Per Minute (CPM) data into a proprietary data calculation and archiving database (Activity Base by IDBS version 5.0). • 2. Column 1 for each plate reflects total phosphorylation activity of the enzyme in the absence of any inhibiting compound and thus represents 100%. Column 12 reflects any nonspecific phosphorylation/retained radioactivity activity in the absence of inhibiting compound and enzyme.

Row | Structure (SMILES) | Cell Assay ECΔτ1h [1] [µM] | Ki (Casein Kinase Iε) [nM]
1 | NC(=O)c1[nH]c2sccc2c1Sc1ccccc1 [IIb, 4-(phenylsulfanyl)-6H-thieno[2,3-b]pyrrole-5-carboxylic acid amide] | 0.874 | 811
2 | NC(=O)c1[nH]c2sccc2c1Sc1cccc(Br)c1 [IIg, 4-(3-Bromophenyl-sulfanyl)-6H-thieno[2,3-b]pyrrole-5-carboxylic acid amide] | 2.492 | 30.6
3 | Cc1nc2c(Sc3cccc(F)c3)c(C(N)=O)[nH]c2s1 [IIn, 6-(3-Fluorophenyl-sulfanyl)-2-methyl-4H-pyrrolo[3,2-d]thiazole-5-carboxylic acid amide] | 0.998 | 15.9
4 | Cc1nc2c(Sc3cccc(Cl)c3)c(C(N)=O)[nH]c2s1 [IIo, 6-(3-Chlorophenyl-sulfanyl)-2-methyl-4H-pyrrolo[3,2-d]thiazole-5-carboxylic acid amide] | 0.662 | 9.6
5 | NC(=O)c1[nH]c2scnc2c1Sc1ccccc1 [IIs, 6-Phenylsulfanyl-4H-pyrrolo[3,2-d]thiazole-5-carboxylic acid amide] | 1.155 | 47
6 | COc1cccc(Sc2c(C(N)=O)[nH]c3scnc23)c1 [IIt, 6-(3-Methoxyphenyl-sulfanyl)-4H-pyrrolo[3,2-d]thiazole-5-carboxylic acid amide] | 1.974 | 22
7 | NC(=O)c1[nH]c2ccsc2c1Sc1ccccc1N [Id, 6-(2-Aminophenyl-sulfanyl)-4H-thieno[3,2-b]pyrrole-5-carboxylic acid amide] | >30 | 110
